Source: article PMC11274643, “Design, Synthesis, Characterization, and Cytotoxicity of New Pyrazolylmethylene-2-thioxoimidazolidin-4-one Derivatives towards Androgen-Sensitive LNCaP Prostate Cancer Cells” (Biomolecules, 2024)

What was measured:
[1] = test system: AR+LNCaP androgen-sensitive human prostate cancer cell line; assay: MTT in vitro cytotoxicity assay, 24 h incubation; format: cell-based; details: for IC50: Homo sapiens, MTT; for Selective Index Wi38/Lncap: ratio of IC50 values
Protocol: (§1) The antitumor properties of pyrazolylmethylene-2-thioxoimidazolidin-4-one derivatives (3a–p) against androgen-sensitive (AR^+LNCaP; ATCC CRL-1740, Accession: CVCL_0395) and androgen-insensitive (AR^-PC-3; ATCC CRL-1435, Accession: CVCL_D5ZS) human prostate cancer cell lines in addition to normal human lung fibroblast cell line (Wi38, Accession: CVCL_2759) were evaluated by MTT assay. AR^+LNCaP, AR^-PC-3, and Wi38 cell lines were purchased frozen in liquid nitrogen from Egyptian Company for Production of Vaccines, Sera and Drugs, Cairo, Egypt (VACSERA). Tumor cell lines were stored as monolayer cultures in DMEM supplemented with 10% FBS and 1% penicillin–streptomycin. MTT assay was carried out as described previously in the literature. In brief, AR^+LNCaP, AR^-PC-3, and Wi38 cells were cultured into 96-well plates containing 100 µL of culture medium per each well. […] A control containing only culture medium was also applied. The assay was performed in triplicate. The cells were incubated overnight to grow at 37 °C in 5% CO2. After removing the growth medium, 100 µL of MTT (0.4 mg/mL of PBS) were added. After 24 h of incubation, the supernatant was removed and 100 µL of DMSO (Sigma Aldrich, Germany) were then added to each sample. Absorbance at 550 nm was measured. The formula (Reading of extract/Reading of negative control) × 100 was applied to calculate the viability percentage. The IC50 value of test compounds (3a–p) was also determined using CPE measurements of normal Wi38 cells (normal human lung fibroblast cells). The MTT assay was repeated with the test compounds (3i, 3k, 3o, 3j, 3p, and 3m) using the three cell types which were stimulated by 1 nM DHT after 48 h of incubation. IC50 values were estimated using Graph Pad Prism computer software (International Scientific Community, San Diego, CA, USA) from linear regression analysis of the concentration–response curves plotted for each tested compound [36].
(§2) In vitro cytotoxicity assay was performed to elucidate the antitumor properties of the synthesized derivatives of pyrazolylmethylene-2-thioxoimidazolidin-4-one. […] The cytotoxicity assay was performed using MTT assay as described in the Materials and Methods Section 2.4.1. The test compounds were dissolved in DMSO as stock solutions (<0.5% (v/v)) and stored in the dark at −20 °C. The human prostate cancer cells and normal human lung fibroblast cells were subjected to variable doses of the compounds for 24 h.

[2] = test system: Wi38 normal human lung fibroblast cell line; assay: MTT in vitro cytotoxicity assay, 24 h incubation; format: cell-based; details: WI-38
Protocol: as §1, §2

[3] = test system: AR-PC-3 androgen-insensitive human prostate cancer cell line; assay: MTT in vitro cytotoxicity assay, 24 h incubation; format: cell-based; details: for IC50: Homo sapiens, MTT; for Selective Index Wi38/PC-3: ratio of IC50 values
Protocol: as §1, §2

[4] = test system: AR+LNCaP androgen-sensitive human prostate cancer cell line; assay: MTT cytotoxicity assay in presence of 1 nM DHT, 48 h incubation; format: cell-based
Protocol: as §1
(§3) The assay was performed in the presence of dihydrotestosterone (1 nM DHT) for 48 h of incubation as previously described. DHT is a potent inducer of androgens that enhances prostate cancer disease progression.

[5] = test system: Wi38 normal human lung fibroblast cell line; assay: as above; format: cell-based; details: WI-38, read-out: IC50 Wi38
Protocol: as §1, §3

[6] = test system: AR-PC-3 androgen-insensitive human prostate cancer cell line; assay: as above; format: cell-based
Protocol: as §1, §3

[7] = test system: active human caspase-3 in AR+LNCaP cells; assay: Detection of active Caspase 3 in AR+LNCaP cell lysates (Invitrogen Elisa kit); format: cell-based; set-up: Caspase 3 Conc. (Average): unit not given here; details: for Caspase 3 fld / Caspase 3: LNCaP, supplement lab report; for Caspase 3 fld: fold of control; for Caspase 3 Conc. (Average): supplement ELISA read-out, average of two wells
Protocol: Untreated AR^+LNCaP and Enzalutamide-treated AR^+LNCaP were used as negative and positive controls, respectively. AR^+LNCaP cells were cultured in 96-well plates at a cell density of 1 × 10^4 cells/well. Cells were then lysed with 50 µL lysis buffer/well supplemented with the Invitrogen Elisa kit for detection of active human caspase-3 (Invitrogen, Camarillo, CA, USA). Plates were frozen at −80 °C for 30 min and then thawed. The lysate was mixed with 2 Z-DEVD-R110 substrate and incubated at room temperature for 30 min. A fluorescence microplate reader (Tecan, Mainz-Kastel, Germany), was used to measure fluorescence via excitation at 496 nm and emission detection at 520 nm. Values were normalized with total protein content. Active caspase 3 accumulation was determined based on standard dilution series of Human Caspase-3 samples provided with the kit. […]

[8] = test system: AR+LNCaP cells; assay: DNA content at cell cycle stages (Propidium Iodide flow cytometry); format: cell-based, human; details: IC50 concentration, 1 nM DHT
Protocol: The amount of DNA contents of AR^+LNCaP cells stimulated with 1 nM DHT and treated with representative test compounds 3i and 3k at the different stages of the cell cycle were quantitatively evaluated as described previously. […] The Ab139418–Propidium Iodide Flow Cytometry Kit for Cell Cycle Analysis (ab139418, Abcam, Cambridge, UK) was employed for this assay following the procedures provided by the supplier.
Firstly, the ab139418-Propidium Iodide Flow Cytometry Kit for Cell Cycle Analysis (Bio vision, Boston, MA, USA) was used to quantify DNA contents at each cell cycle stage as an indicator of the cell cycle growth arrest.

[9] = test system: AR+LNCaP cells; assay: Cell apoptosis assay (Annexin V-FITC, flow cytometry); format: cell-based, human; details: IC50 concentration, 1 nM DHT, 24 h
Protocol: Cell apoptosis assay was performed to ensure the efficacy of compounds 3i and 3k against the progression of AR^+LNCaP tumor cell growth in the presence of 1 nM DHT. Untreated AR^+LNCaP and Enzalutamide-treated AR^+LNCaP were used in this assay as negative and positive controls, respectively. AR^+LNCaP cells were precultured in 25 cm^2 flasks. Briefly, 1 nM DHT was then added to the growing cells. […] AR^+LNCaP cells were harvested and fixed with 70% (v/v) ethanol in FBS (Sigma-Aldrich, Germany), then maintained at 4 °C overnight. The cells were resuspended in FBS containing 0.1% (v/v) Triton X-100, 40 µg/mL […], and 0.1 mg/mL RNase then incubated in a dark chamber at 37 °C for 30 min. A flow-cytometer (Becton Dickinson, San Jose, CA, USA) supplemented with an argon ion laser at a wavelength of 488 nm was used to analyze the AR^+LNCaP cell apoptotic stages. Based on the protocol described by Ozgur et al. (2003), analysis of the data was implemented using Multicycle Software (Phoenix Flow Systems, San Diego, CA, USA; http://www.phoenixflow.com/index.html).
The active compounds 3i and 3k were further analyzed to evaluate their antitumor properties against the growth of the AR^+LNCaP prostate cancer cell line. […] Untreated AR^+LNCaP cells and Enzalutamide reference drug were also used as negative and positive controls in this assay, respectively.

Row | SMILES | IC50 [1] | Selective Index Wi38/Lncap [1] | IC50 [2] | IC50 [3] | Selective Index Wi38/PC-3 [3] | melting point | other results
1 | O=C1NC(=S)NC1=Cc1cn(-c2ccccc2)nc1-c1ccc(F)cc1 [Compound 3a, 5-((3-(4-Fluorophenyl)-1-phenyl-1H-pyrazol-4-yl)methylene)-2-thioxoimidazolidin-4-one] | 26.57 ± 0.04 µM | 2.4 | 63.27 ± 0.18 µM | 16.8 ± 0.34 µM | 3.8 | 186 to 188 °C | –
2 | O=C1NC(=S)NC1=Cc1cn(-c2ccccc2)nc1-c1ccc(Cl)cc1 [Compound 3b, 5-((3-(4-Chlorophenyl)-1-phenyl-1H-pyrazol-4-yl)methylene)-2-thioxoimidazolidin-4-one] | 20.79 ± 0.06 µM | 1.0 | 24.26 ± 0.06 µM | 21.92 ± 0.12 µM | 0.9 | 183 to 184 °C | –
3 | O=C1NC(=S)NC1=Cc1cn(-c2ccccc2)nc1-c1ccc(Br)cc1 [Compound 3c, 5-((3-(4-Bromophenyl)-1-phenyl-1H-pyrazol-4-yl)methylene)-2-thioxoimidazolidin-4-one] | 110 ± 2.06 µM | 0.8 | 87.9 ± 2.96 µM | 20.9 ± 1.12 µM | 4.2 | 193 to 195 °C | –
4 | O=C1NC(=S)NC1=Cc1cn(-c2ccccc2)nc1-c1ccc(C(F)(F)F)cc1 [Compound 3d, 5-((1-Phenyl-3-(4-(trifluoromethyl)phenyl)-1H-pyrazol-4-yl)methylene)-2-thioxoimidazolidin-4-one] | 23.5 ± 0.74 µM | 2.0 | 48.19 ± 0.21 µM | 177.2 ± 0.61 µM | 0.3 | 183 to 185 °C | –
5 | O=C1NC(=S)NC1=Cc1cn(-c2ccccc2)nc1-c1ccccc1 [Compound 3e, 5-((1,3-Diphenyl-1H-pyrazol-4-yl)methylene)-2-thioxoimidazolidin-4-one] | 33.9 ± 0.12 µM | 1.9 | 63.24 ± 0.26 µM | 20.1 ± 0.21 µM | 3.2 | 168 to 179 °C | –
6 | Cc1ccc(-c2nn(-c3ccccc3)cc2C=C2NC(=S)NC2=O)cc1 [Compound 3f, 5-((1-Phenyl-3-(p-tolyl)-1H-pyrazol-4-yl)methylene)-2-thioxoimidazolidin-4-one] | 54.19 ± 0.11 µM | 1.0 | 56.56 ± 0.14 µM | 20.19 ± 0.04 µM | 2.8 | 189 to 191 °C | –
7 | Nc1ccc(-c2nn(-c3ccccc3)cc2C=C2NC(=S)NC2=O)cc1 [Compound 3g, 5-((3-(4-Aminophenyl)-1-phenyl-1H-pyrazol-4-yl)methylene)-2-thioxoimidazolidin-4-one] | 47.31 ± 0.18 µM | 1.2 | 56.62 ± 0.16 µM | 26.8 ± 0.39 µM | 2.1 | 195 to 197 °C | –
8 | O=C1NC(=S)NC1=Cc1cn(-c2ccc(F)cc2)nc1-c1ccc(F)cc1 [Compound 3h, 5-((1,3-Bis(4-fluorophenyl)-1H-pyrazol-4-yl)methylene)-2-thioxoimidazolidin-4-one] | 19.48 ± 0.05 µM | 1.0 | 20.96 ± 0.13 µM | 18.8 ± 0.14 µM | 1.0 | 178 to 179 °C | –
9 | O=C1NC(=S)NC1=Cc1cn(-c2ccc(F)cc2)nc1-c1ccc(Br)cc1 [Compound 3j, 5-((3-(4-Bromophenyl)-1-(4-fluorophenyl)-1H-pyrazol-4-yl)methylene)-2-thioxoimidazolidin-4-one] | 13.9 ± 0.14 µM | 2.2 | 31.18 ± 0.16 µM | 24.44 ± 0.12 µM | 1.5 | 199 to 201 °C | IC50 ([4]; Homo sapiens): 7.72 ± 0.15 µM; Selectivity AR-/AR+ ([4]; IC50 PC-3 / IC50 LNCaP): 1.8; CC50 [5]: 21.08 ± 0.06 µM; IC50 [6]: 14.2 ± 0.15 µM; active Caspase 3 fold change compared to untreated cells ([7]; IC50 concentration, 1 nM DHT, AR+LNCaP lysate): 4.2 fold; induction of active caspase 3 as a percentage of the reference drug Enzalutamide ([7]; IC50 concentration, AR+LNCaP): 63.0%; Caspase 3 fld [7]: 4.115; Caspase 3 [7]: 316.5 pg/mL; Caspase 3 Conc. (Average) [7]: 316.5
10 | O=C1NC(=S)NC1=Cc1cn(-c2ccc(F)cc2)nc1-c1ccccc1 [Compound 3l, 5-((1-(4-Fluorophenyl)-3-phenyl-1H-pyrazol-4-yl)methylene)-2-thioxoimidazolidin-4-one] | 20.8 ± 0.04 µM | 1.3 | 26.81 ± 0.06 µM | 15.3 ± 0.04 µM | 1.8 | 189 to 191 °C | –
11 | COc1ccc(-c2nn(-c3ccc(F)cc3)cc2C=C2NC(=S)NC2=O)cc1 [Compound 3n, 5-((1-(4-Fluorophenyl)-3-(4-methoxyphenyl)-1H-pyrazol-4-yl)methylene)-2-thioxoimidazolidin-4-one] | 15.02 ± 0.15 µM | 1.8 | 26.93 ± 0.09 µM | 23.25 ± 0.08 µM | 1.2 | 179 to 181 °C | –
12 | COc1cccc2c1C(=O)c1c(O)c3c(c(O)c1C2=O)C[C@@](O)(C(=O)CO)C[C@@H]3O[C@H]1C[C@H](N)[C@H](O)[C@H](C)O1 [Doxorubicin, reference compound] | 11.4 ± 0.16 µM | 1.3 | 15.14 ± 0.12 µM | 10 ± 0.18 µM | 1.5 | – | –
13 | CNC(=O)c1ccc(N2C(=S)N(c3ccc(C#N)c(C(F)(F)F)c3)C(=O)C2(C)C)cc1F [Enzalutamide, reference compound] | – | – | – | – | – | – | Caspase 3 fld [7]: 6.923; Caspase 3 [7]: 532.4 pg/mL; Caspase 3 Conc. (Average) [7]: 532.4; DNA Content (%) G0–G1 [8]: 61.02%; DNA Content (%) G2/M [8]: 25.37%; Early Apoptosis (%) [9]: 9.46%; Late Apoptosis (%) [9]: 21.27%; Necrotic Cells (%) [9]: 3.13%; Total Apoptosis (%) [9]: 33.86%
